Measured values taken from the supplement of paper PMC4862054.

Columns and labels:
Conditions in all cases: incubation time: 72 h
Hs578T [1] = experiment: normalised response (% of control), CellTiter-Glo; higher = more viable cells (100 = DMSO, 0 = benzethonium chloride kill control)
Method in brief: (§1)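 Two readouts were taken after 72 h: CellTox Green fluorescence (485/520 nm) first, then CellTiter-Glo luminescence after 10 min at room temperature. Breast cancer cell lines had been seeded as 20 µl suspension into 384-well plates holding compound at 5 concentrations in 10-fold steps across a compound-specific 10,000-fold range. Each value is a normalised signal at a single concentration, with plates scaled to 0.1 % DMSO (100) and a positive kill control (0).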

MDA-MB-453 [2] = experiment: as above
Method in brief: as §1

HCC1599 [3] = experiment: as above
Method in brief: as §1

MDA-MB-231 [4] = experiment: as above
Method in brief: as §1

MFM-223 [5] = experiment: as above
Method in brief: as §1

SK-BR-3 = experiment: as above
Method in brief: as §1

CAL-51 [6] = experiment: as above
Method in brief: as §1

MCF-10A [7] = experiment: as above
Method in brief: as §1

BT-474 [8] = experiment: as above
Method in brief: as §1

HCC1143 [9] = experiment: as above
Method in brief: as §1

HDQ-P1 [10] = experiment: as above
Method in brief: as §1

BT-549 [11] = experiment: as above
Method in brief: as §1

CAL-148 = experiment: as above
Method in brief: as §1

CAL-120 [12] = experiment: as above
Method in brief: as §1

MDA-MB-468 = experiment: as above
Method in brief: as §1

MDA-MB-436 [13] = experiment: as above
Method in brief: as §1

CAL-85-1 [14] = experiment: as above
Method in brief: as §1

Hs578T [15] = experiment: normalised response (% of control), CellTox Green; higher = less cell death (100 = DMSO, 0 = benzethonium chloride kill control)
Method in brief: as §1

MDA-MB-453 [16] = experiment: as above
Method in brief: as §1

HCC1599 [17] = experiment: as above
Method in brief: as §1

MFM-223 [18] = experiment: as above
Method in brief: as §1

CAL-51 [19] = experiment: as above
Method in brief: as §1

MCF-10A [20] = experiment: as above
Method in brief: as §1

BT-474 [21] = experiment: as above
Method in brief: as §1

HCC1937 = experiment: as above
Method in brief: as §1

HCC1143 [22] = experiment: as above
Method in brief: as §1

HDQ-P1 [23] = experiment: as above
Method in brief: as §1

BT-549 [24] = experiment: as above
Method in brief: as §1

CAL-120 [25] = experiment: as above
Method in brief: as §1

MDA-MB-436 [26] = experiment: as above
Method in brief: as §1

CAL-85-1 [27] = experiment: as above
Method in brief: as §1

MDA-MB-231 [28] = experiment: as above
Method in brief: as §1

Row | Structure (SMILES) | normalised response (Hs578T [1]) [%] | normalised response (MDA-MB-453 [2]) [%] | normalised response (HCC1599 [3]) [%] | normalised response (MDA-MB-231 [4]) [%] | normalised response (MFM-223 [5]) [%] | normalised response (SK-BR-3) [%] | normalised response (CAL-51 [6]) [%] | normalised response (MCF-10A [7]) [%] | normalised response (BT-474 [8]) [%] | normalised response (HCC1143 [9]) [%] | normalised response (HDQ-P1 [10]) [%] | normalised response (BT-549 [11]) [%] | normalised response (CAL-148) [%] | normalised response (CAL-120 [12]) [%] | normalised response (MDA-MB-468) [%] | normalised response (MDA-MB-436 [13]) [%] | normalised response (CAL-85-1 [14]) [%] | normalised response (Hs578T [15]) [%] | normalised response (MDA-MB-453 [16]) [%] | normalised response (HCC1599 [17]) [%] | normalised response (MFM-223 [18]) [%] | normalised response (CAL-51 [19]) [%] | normalised response (MCF-10A [20]) [%] | normalised response (BT-474 [21]) [%] | normalised response (HCC1937) [%] | normalised response (HCC1143 [22]) [%] | normalised response (HDQ-P1 [23]) [%] | normalised response (BT-549 [24]) [%] | normalised response (CAL-120 [25]) [%] | normalised response (MDA-MB-436 [26]) [%] | normalised response (CAL-85-1 [27]) [%] | normalised response (MDA-MB-231 [28]) [%]
1 | CCCCCOC(=O)Nc1nc(=O)n([C@@H]2O[C@H](C)[C@@H](O)[C@H]2O)cc1F [Capecitabine] (1000 nM) | 107 | 111 | 104 | 98.2 | 102 | 105 | 112 | 97 | 103 | 103 | 96.2 | 104 | 98.6 | 107 | 101 | 98.7 | 92.2 | 71.7 | 103 | 96.3 | 99.4 | 113 | 64.8 | 99.1 | 71.6 | 109 | 110 | 117 | 102 | 100 | 109 | –
2 | CC(C)C[C@H](NC(=O)[C@H](CCc1ccccc1)NC(=O)CN1CCOCC1)C(=O)N[C@@H](Cc1ccccc1)C(=O)N[C@@H](CC(C)C)C(=O)[C@@]1(C)CO1 [Carfilzomib] (100 nM) | 0.88 | 12.2 | 52 | 0.22 | 4.43 | 3.27 | 2.57 | 43.6 | 0.61 | 8.24 | 0.29 | 1.4 | 0.66 | 2.73 | 0.79 | 1.46 | 0.78 | 46.7 | 90.1 | 97.3 | 32.8 | 6.93 | 69.7 | 61.4 | 32.5 | 82.7 | -12.1 | 50.8 | 11.9 | 18.8 | -43 | -17.7
3 | Nc1nc(Cl)nc2c1ncn2[C@@H]1O[C@H](CO)[C@@H](O)[C@@H]1F [Clofarabine] (1000 nM) | 91.9 | 127 | 61.7 | 91 | 103 | 42.7 | 26.9 | 68.1 | 78.7 | 44.1 | 79.4 | 35.7 | 58.5 | 75.3 | 43.7 | 22.9 | 47.4 | 95.3 | 113 | 81.2 | 99 | 12.1 | 110 | 100 | 109 | 112 | 101 | 70.7 | 103 | 105 | 88.3 | 111
4 | C[C@@H]1C[C@H]2[C@@H]3CCC4=CC(=O)C=C[C@]4(C)[C@@]3(F)[C@@H](O)C[C@]2(C)[C@@]1(O)C(=O)CO [Dexamethasone] (1000 nM) | 108 | 84.6 | 97.8 | 159 | 93.5 | 83.5 | 124 | 80.6 | 139 | 97.6 | 83.6 | 102 | 92.5 | 68.7 | 102 | 104 | 112 | 77.8 | 94.8 | 87 | 54.1 | 110 | 78.1 | 99.3 | 106 | 107 | 56.1 | 111 | 98.4 | 81.5 | 98.8 | 141
5 | CC(C)C(=O)Nc1ccc([N+](=O)[O-])c(C(F)(F)F)c1 [Flutamide] (1000 nM) | 100 | 99.7 | 111 | 101 | 99.8 | 93.9 | 93.2 | 99.3 | 103 | 100 | 101 | 103 | 99.9 | 94.7 | 96.9 | 98.1 | 93.5 | 108 | 102 | 94.6 | 99 | 98.4 | 97.9 | 99.5 | 118 | 99.2 | 114 | 115 | 102 | 99.7 | 101 | 98.5
6 | COc1cc2c(Oc3ccc(NC(=O)C4(C(=O)Nc5ccc(F)cc5)CC4)cc3F)ccnc2cc1OCCCN1CCOCC1 [Foretinib] (100 nM) | 96.1 | 85.6 | 89.8 | 87 | 75.7 | 107 | 99.5 | 95.1 | 92.3 | 93.8 | 95.5 | 114 | 102 | 93.9 | 105 | 110 | 98 | 83.7 | 107 | 99.2 | 101 | 94.2 | 111 | 100 | 111 | 106 | 109 | 113 | 101 | 102 | 100 | 65.1
7 | O=NN(CCCl)C(=O)NC1CCCCC1 [Lomustine] (1000 nM) | 101 | 113 | 128 | 98.5 | 98 | 94.6 | 112 | 105 | 101 | 98.1 | 102 | 107 | 95.3 | 100 | 104 | 104 | 94.1 | 98.3 | 103 | 93.7 | 97 | 112 | 96.9 | 98.1 | 120 | 108 | 55.3 | 104 | 103 | 84.8 | 98.6 | 90
8 | O=C(O)CC[C@H]1CC[C@@](c2cc(F)ccc2F)(S(=O)(=O)c2ccc(Cl)cc2)CC1 [MK-0752] (100 nM) | 103 | 108 | 109 | 104 | 109 | 109 | 113 | 109 | 98.7 | 108 | 95.6 | 91.6 | 95.4 | 95.6 | 107 | 104 | 92 | 97.3 | 111 | 111 | 94 | 116 | 114 | 102 | 96 | 105 | 109 | 131 | 101 | 110 | 97 | 122
9 | O=C(c1cc(Cc2n[nH]c(=O)c3ccccc23)ccc1F)N1CCN(C(=O)C2CC2)CC1 [Olaparib] (1000 nM) | 97.5 | 132 | 101 | 88.7 | 101 | 92 | 98.5 | 92.3 | 87.6 | 94.8 | 96.6 | 94.9 | 83.1 | 92.3 | 91.8 | 75.2 | 101 | 83.4 | 112 | 94.9 | – | 89.5 | 101 | 92.9 | 109 | 93.3 | 71.5 | 124 | 97 | 60.6 | 102 | 100
10 | CO[C@H](C(=O)[C@@H](O)[C@@H](C)O)[C@@H]1Cc2cc3cc(O[C@H]4C[C@@H](O[C@@H]5C[C@@H](O)[C@H](O)[C@@H](C)O5)[C@H](O)[C@@H](C)O4)c(C)c(O)c3c(O)c2C(=O)[C@H]1O[C@H]1C[C@@H](O[C@@H]2C[C@@H](O)[C@@H](O[C@@H]3C[C@](C)(O)[C@H](O)[C@@H](C)O3)[C@@H](C)O2)[C@H](O)[C@@H](C)O1 [Plicamycin] (1000 nM) | 104 | 105 | 120 | 94.2 | 104 | 106 | 86.9 | 110 | 91 | 101 | 102 | 89.5 | 104 | 105 | 91 | 103 | 100 | 106 | 104 | 94.9 | 81.3 | 94.9 | 86.6 | 100 | 104 | 81.6 | 97.8 | 107 | 103 | – | 99.3 | 106
